# Test results from patent publication US20070009886A1, “Carbohydrate-associated proteins” (Incyte Corporation, priority 2002, published 2007).
# B1: IL-4: a pleiotropic cytokine produced by activated T cells, mast cells, and basophils (protein, UniProt P05112 25-153, looked up)
# Interleukin-4: HKCDITLQEIIKTLNSLTEQKTLCTELTVTDIFAASKNTTEKETFCRAATVLRQFYSHHEKDTRCLGATAQQFHRHKQLIRFLKRLDRNLWGLAGLNSCPVKEANQSTLENFLERLKTIMREKYSKCSS
# Experiments:
# [1] = relative to progesterone; cited from earlier work
# [2] = intranasal, relative to hydrocortisone; cited from earlier work
# [3] = tested on: SEQ ID NO:37 expression in PBMCs; experiment: Microarray analysis of SEQ ID NO:37 expression in cytokine-treated versus untreated PBMCs; type: cell-based, human; details: 10 ng/ml recombinant IL-4, 2 hours, pooled PBMCs of 6 healthy donors
# Description: Total RNA is isolated from tissue samples using the guanidinium thiocyanate method and poly(A)^+ RNA is purified using the oligo-(dT) cellulose method. Each poly(A)^+ RNA sample is reverse transcribed using MMLV reverse-transcriptase, 0.05 pg/μl oligo-(dT) primer (21mer), 1× first strand buffer, 0.03 units/μl RNase inhibitor, […], […], 500 μM dTTP, 40 μM dCTP, 40 μM dCTP-Cy3 (BDS) or dCTP-Cy5 (Amersham Biosciences). The reverse transcription reaction is performed in a […] containing 200 ng poly(A)^+ RNA with GEMBRIGHT kits (Incyte). Specific control poly(A)^+ RNAs are synthesized by in vitro transcription from non-coding yeast genomic DNA. […]
# Sequences of the present invention are used to generate array elements. […] Array elements are amplified in thirty cycles of PCR from an initial quantity of 1-2 ng to a final quantity greater than 5 μg. […]
# Reporter-labeled hybridization complexes are detected with a microscope equipped with an Innova 70 mixed gas 10 W laser (Coherent, Inc., Santa Clara Calif.) capable of generating spectral lines at 488 nm for excitation of Cy3 and at 632 nm for excitation of Cy5. […]
# A grid is superimposed over the fluorescence signal image such that the signal from each spot is centered in each element of the grid. […]
molecule,measurement,setting,value
6α-methyl-17-hydroxyprogesterone [medroxyprogesterone],pharmacological activity greater than progesterone,[1],about 15 times
C[C@H]1C[C@H]2[C@@H]3CCC4=CC(=O)C=C[C@]4(C)[C@@]3(Cl)[C@@H](O)C[C@]2(C)[C@@]1(O)C(=O)CO [beclomethasone],anti-inflammatory and vasoconstrictive effects greater than those produced by hydrocortisone,[2],5000 times
B1,expression of SEQ ID NO:37 increased in comparison to untreated PBMCs,[3],at least 2 fold
